Tests used:
plasma proteins [1] = test: Protein resistance to vortexing; settings: for Alk. Phos / LDH / SGOT / SGPT / fIX / fV / fVIII / fibrinogen: plasma, Na citrate 0.4%, lysine citrate 2.0%
Method: As the basic anticoagulant experiments were carried out, additional advantages to the new anticoagulation system became apparent. The inventor has long believed that the effects of citrate on proteins, and in particular plasma proteins, goes beyond mere chelation of calcium. As mentioned above, citrate complexes with or otherwise potentiates the precipitation of plasma proteins. […] Soluble protein can be denatured by vigorous mixing and the resulting exposure to the air-water interfaces present in foam. […]. Two ten ml tubes of each plasma were prepared and held at room temperature for thirty minutes. A “pretreatment” sample (Pre) was removed from each tube and set aside. Then the tubes were subjected to vigorous mixing using a vortex (rotary) mixer for 30 min.
[…]. […] […].

plasma proteins [2] = test: Protein resistance to glass beads; settings: Na citrate 0.4%, lysine citrate 2.0%
Source text: The above experiment was repeated using glass beads as a denaturing agent. Generally, contact of blood plasma with glass surfaces results in activation or denaturation. […].

plasma proteins [3] = test: Protein resistance to room temperature aging; settings: Na citrate 0.4%, lysine citrate 2%
Source text: (§1) […]. In many cases heat treatments have been used to reduce or eliminated infectious agents from blood products. A problem with such an approach has been heat induced changes in the antigenicity of certain blood components. […]. A continuation of this experiment was set up to check also long term room temperature stability. It is generally believed that resistance to heat is an indicator of room temperature stability. That is the justification for estimating long term stability of products by using “accelerated” stability tests based on storage at an elevated temperature. In the presented experiment it is important to note that different plasma sample were used for the two different anticoagulants because a single sample was not large enough to provide sufficient volume for all of the tests over the life of the extended experiment.
It was anticipated that protection against damage due to elevated temperature would also provide greater stability at room temperature. It will be appreciated that the need to rapidly freeze plasma to ensure stability and the need to freeze or refrigerate plasma for transport greatly complicates the use of plasma under situations of war or emergency or in developing countries where refrigeration may not be readily available. […] […]. […] […]. Although great effort is taken to ensure sterility of the plasma, any blood product procured by means of venipuncture may become contaminated by skin bacteria. […] […]. Those proteins that do lose activity decrease only slightly as compared to much more dramatic decreases in sodium citrate storage.

plasma proteins [4] = test: Protein resistance to 56° C. treatment; settings: Na citrate 0.4%, lysine citrate 2.0%
Source text: as §1

clot formation = test: Clotting times (PT, PTT) of anticoagulated whole blood; assay type: biochemical
Method: In this experiment whole blood (an aliquot of which clotted within 10 minutes without anticoagulant) was modified by adding a number of different anticoagulant compositions. Sodium citrate was used as an anticoagulant at 0.65%, 0.75% and 0.9% by weight. These are all higher citrate levels than the usual 0.4% by weight. Amino acid citrates (lysine or arginine) were used at 0.65%, 0.75% and 0.9% by weight based on the weight of the citric acid. The amino acid counterion was used in sufficient quantity to adjust the pH as explained above.

[5] = after vortexing, 2% sodium citrate (similar experiment, data not shown)
[6] = after vortexing, sodium citrate 0.4%, lysine citrate 2%
[7] = Post 30 min rocking with glass beads
[8] = Post 56° C. for five minutes, plasma

SMILES: O=C([O-])CC(O)(CC(=O)[O-])C(=O)[O-].[Na+].[Na+].[Na+] [Na Citrate, sodium citrate, reference compound]
- Alk. Phos (plasma proteins [1]; Post 30 min vortexing): 15 IU/.L
- LDH (plasma proteins [1]; Post 30 min vortexing): 33 IU/L
- SGOT (plasma proteins [1]; Post 30 min vortexing): 1 IU/L
- SGPT (plasma proteins [1]; Post 30 min vortexing): 1 IU/L
- fIX (plasma proteins [1]; Post 30 min vortexing): 44%
- fV (plasma proteins [1]; Post 30 min vortexing): 21%
- fVIII (plasma proteins [1]; Post 30 min vortexing): 32%
- fibrinogen (plasma proteins [1]; Post 30 min vortexing): 106 mg/dL
- Alk. Phos (plasma proteins [1]; Pre vortexing): 27 IU/.L
- LDH (plasma proteins [1]; Pre vortexing): 100 IU/L
- SGOT (plasma proteins [1]; Pre vortexing): 15 IU/L
- SGPT (plasma proteins [1]; Pre vortexing): 29 IU/L
- fIX (plasma proteins [1]; Pre vortexing): 103%
- fV (plasma proteins [1]; Pre vortexing): 98%
- fVIII (plasma proteins [1]; Pre vortexing): 102%
- fibrinogen (plasma proteins [1]; Pre vortexing): 258 mg/dL
- LDH, % of the initial value (plasma proteins [1]; [5]): 48%
- SGOT, % of the initial value (plasma proteins [1]; [5]): 33%
- SGPT, % of the initial value (plasma proteins [1]; [5]): 32%
- alkaline phosphatase, % of the initial value (plasma proteins [1]; [5]): 80%
- factor IX, % of the initial value (plasma proteins [1]; [5]): 62%
- factor V, % of the initial value (plasma proteins [1]; [5]): 52%
- factor Viii, % of the initial value (plasma proteins [1]; [5]): 57%
- fibrinogen, % of the initial value (plasma proteins [1]; [5]): 69%
- Alkaline phosphatase, % of its initial value (plasma proteins [1]; [6]): 55%
- LDH, % of initial value (plasma proteins [1]; [6]): 33%
- SGOT, % of initial value (plasma proteins [1]; [6]): 6.6%
- SGPT, % of initial value (plasma proteins [1]; [6]): 3.4%
- factor IX, % of initial value (plasma proteins [1]; [6]): 43%
- factor V, % of initial value (plasma proteins [1]; [6]): 21%
- factor VIII, % of initial value (plasma proteins [1]; [6]): 31%
- fibrinogen, % of initial value (plasma proteins [1]; [6]): 4%
- Alk. Phos (plasma proteins [2]; [7]): 16 IU/.L
- LDH (plasma proteins [2]; [7]): 24 IU/L
- SGOT (plasma proteins [2]; [7]): 1 IU/L
- SGPT (plasma proteins [2]; [7]): 1 IU/L
- fIX (plasma proteins [2]; [7]): 14%
- fV (plasma proteins [2]; [7]): 15%
- fVIII (plasma proteins [2]; [7]): 29%
- fibrinogen (plasma proteins [2]; [7]): 88 mg/dL
- Alk. Phos (plasma proteins [2]; Pre glass beads): 27 IU/.L
- LDH (plasma proteins [2]; Pre glass beads): 100 IU/L
- SGOT (plasma proteins [2]; Pre glass beads): 15 IU/L
- SGPT (plasma proteins [2]; Pre glass beads): 29 IU/L
- fIX (plasma proteins [2]; Pre glass beads): 103%
- fV (plasma proteins [2]; Pre glass beads): 98%
- fVIII (plasma proteins [2]; Pre glass beads): 102%
- fibrinogen (plasma proteins [2]; Pre glass beads): 258 mg/dL
- Alk. Phos (plasma proteins [3]; 0 days at room temperature): 30 IU/.L
- LDH (plasma proteins [3]; 0 days at room temperature): 110 IU/L
- SGOT (plasma proteins [3]; 0 days at room temperature): 18 IU/L
- SGPT (plasma proteins [3]; 0 days at room temperature): 32 IU/L
- fIX (plasma proteins [3]; 0 days at room temperature): 104%
- fV (plasma proteins [3]; 0 days at room temperature): 98%
- fVIII (plasma proteins [3]; 0 days at room temperature): 109%
- fibrinogen (plasma proteins [3]; 0 days at room temperature): 206 mg/dL
- Alk. Phos (plasma proteins [3]; 7 days at room temperature): 29 IU/.L
- LDH (plasma proteins [3]; 7 days at room temperature): 111 IU/L
- SGOT (plasma proteins [3]; 7 days at room temperature): 18 IU/L
- SGPT (plasma proteins [3]; 7 days at room temperature): 30 IU/L
- fIX (plasma proteins [3]; 7 days at room temperature): 107%
- fV (plasma proteins [3]; 7 days at room temperature): 102%
- fVIII (plasma proteins [3]; 7 days at room temperature): 100%
- fibrinogen (plasma proteins [3]; 7 days at room temperature): 181 mg/dL
- Alk. Phos (plasma proteins [3]; 14 days at room temperature): 31 IU/.L
- LDH (plasma proteins [3]; 14 days at room temperature): 108 IU/L
- SGOT (plasma proteins [3]; 14 days at room temperature): 15 IU/L
- SGPT (plasma proteins [3]; 14 days at room temperature): 26 IU/L
- fIX (plasma proteins [3]; 14 days at room temperature): 93%
- fV (plasma proteins [3]; 14 days at room temperature): 102%
- fVIII (plasma proteins [3]; 14 days at room temperature): 92%
- fibrinogen (plasma proteins [3]; 14 days at room temperature): 173 mg/dL
- Alk. Phos (plasma proteins [3]; 21 days at room temperature): 28 IU/.L
- LDH (plasma proteins [3]; 21 days at room temperature): 103 IU/L
- SGOT (plasma proteins [3]; 21 days at room temperature): 12 IU/L
- SGPT (plasma proteins [3]; 21 days at room temperature): 20 IU/L
- fIX (plasma proteins [3]; 21 days at room temperature): 56%
- fV (plasma proteins [3]; 21 days at room temperature): 44%
- fVIII (plasma proteins [3]; 21 days at room temperature): 78%
- fibrinogen (plasma proteins [3]; 21 days at room temperature): 167 mg/dL
- Alk. Phos (plasma proteins [4]; [8]): 23 IU/.L
- LDH (plasma proteins [4]; [8]): 84 IU/L
- SGOT (plasma proteins [4]; [8]): 15 IU/L
- SGPT (plasma proteins [4]; [8]): 21 IU/L
- fIX (plasma proteins [4]; [8]): 67%
- fV (plasma proteins [4]; [8]): 45%
- fVIII (plasma proteins [4]; [8]): 56%
- fibrinogen (plasma proteins [4]; [8]): 15 mg/dL
- Alk. Phos (plasma proteins [4]; before heating, fresh plasma): 30 IU/.L
- LDH (plasma proteins [4]; before heating, fresh plasma): 110 IU/L
- SGOT (plasma proteins [4]; before heating, fresh plasma): 18 IU/L
- SGPT (plasma proteins [4]; before heating, fresh plasma): 32 IU/L
- fIX (plasma proteins [4]; before heating, fresh plasma): 104%
- fV (plasma proteins [4]; before heating, fresh plasma): 98%
- fVIII (plasma proteins [4]; before heating, fresh plasma): 109%
- fibrinogen (plasma proteins [4]; before heating, fresh plasma): 206 mg/dL
- PT (4 hrs at RT) (clot formation; anticoagulant 0.65 wgt %): 13.1 s
- PTT (4 hrs at RT) (clot formation; anticoagulant 0.65 wgt %): 28.7 s
- PT (4 hrs at RT) (clot formation; anticoagulant 0.75 wgt %): 14.1 s
- PTT (4 hrs at RT) (clot formation; anticoagulant 0.75 wgt %): 31.5 s
- PT (4 hrs at RT) (clot formation; anticoagulant 0.90 wgt %): 21.2 s
- PTT (4 hrs at RT) (clot formation; anticoagulant 0.90 wgt %): 35.0 s

Reference: US20090123907A1 (priority 2004, published 2009)
